Experimental data as given in patent US8030300B2, “Ligands for nicotinic acetylcholine receptors, and methods of making and using them” (priority 2003, dated 2011).
Read-outs that look alike come from different tables or passages of the source.

Experiments:
Test in all cases: biochemical
Format in all cases: binding
α3β4 nAChR subtype = molecular target: T1, α3β4 nAChR subtype (Rattus norvegicus, UniProt P04757+P12392)
T1 construct: expressed in transfected cells
Excerpt: (§1) In order to assess the steric and hydropathic effects of the C-5 substituents of the pyridine on the binding affinity and subtype-selectivity at neuronal nicotinic acetylcholine receptors. […] The binding affinity ratios for a ligand, calculated from its affinities at an α subunit paired with either the β2 osubunit or the β4 subunit, represents a measure of the selectivity of that ligand with regard to the β subunits.

α2β2 nAChR subtype = molecular target: T2, α2β2 nAChR subtype (Rattus norvegicus, UniProt P12389+P12390)
T2 construct: expressed in transfected cells
Excerpt: as §1

α2β4 nAChR subtype = molecular target: T3, α2β4 nAChR subtype (Rattus norvegicus, UniProt P12389+P12392)
T3 construct: expressed in transfected cells
Excerpt: as §1

α4β2 nAChR subtype = molecular target: T4, α4β2 nAChR subtype (Rattus norvegicus, UniProt P09483+P12390)
T4 construct: expressed in transfected cells
Excerpt: as §1

α4β4 nAChR subtype = molecular target: T5, α4β4 nAChR subtype (Rattus norvegicus, UniProt P09483+P12392)
T5 construct: expressed in transfected cells
Excerpt: as §1

α3β2 nAChR subtype = molecular target: T6, α3β2 nAChR subtype (Rattus norvegicus, UniProt P04757+P12390)
T6 construct: expressed in transfected cells
Excerpt: as §1

[1] = molecular target: T7, receptors in rat forebrain (mainly α4β2) (Rattus norvegicus, UniProt P09483+P12390)
T7 construct: from tissue; host or cells: rat forebrain homogenate
Excerpt: as §1
In Vitro Inhibition of ^3H-Epibatidin Binding
The high affinity binding site for ^3H-epibatidin is most certainly binding to the α4β2 subtype of nicotinic receptors. The identity of the low affinity site is still believed to be unknown.
Tissue preparation: Preparations may be performed at 0-4° C. unless otherwise indicated. […] The tissue suspension may then be centrifuged at 27,000×g for 10 min. The supernatant is then discarded and the pellet may then be washed three times by centrifugation at 27,000×g for 10 min in 20 mL fresh buffer, and the final pellet may be resuspended in fresh buffer (400 mL per g of original tissue) and used for binding assays.
Assay: Aliquots of 2.0 mL homogenate may be added to 0.100 mL of test solution and 0.100 mL of ^3H-epibatidin (0.3 nM, final concentration), mixed and incubated for 60 min at room temperature. […] The amount of radioactivity on the filters may be determined by conventional liquid scintillation counting. Specific binding is total binding minus non-specific binding.

[2] = Ki α3β4, Table 5, rat nAChR subtypes
[3] = Ki α2β2, Table 5, rat nAChR subtypes
[4] = Ki α2β4, Table 5, rat nAChR subtypes
[5] = Ki α4β2, Table 5, rat nAChR subtypes
[6] = Ki α4β4, Table 5, rat nAChR subtypes
[7] = Ki α3β2, Table 5, rat nAChR subtypes
[8] = Ki α4β2*, Table 5, *Rat forebrain, mainly α4β2
[9] = Ki α3β4, Table 1, mean of 3 (1, 2: 3 to 6) independent measurements
[10] = Ki α2β2, Table 1, mean of 3 (1, 2: 3 to 6) independent measurements
[11] = Ki α2β4, Table 1, mean of 3 (1, 2: 3 to 6) independent measurements
[12] = Ki α4β2, Table 1, mean of 3 (1, 2: 3 to 6) independent measurements
[13] = Ki α4β4, Table 1, mean of 3 (1, 2: 3 to 6) independent measurements
[14] = Ki α3β2, Table 1, mean of 3 (1, 2: 3 to 6) independent measurements
[15] = Ki Rat forebrain, Table 1, mean of 3 (1, 2: 3 to 6) independent measurements

T5 sequence (P12392 21-495): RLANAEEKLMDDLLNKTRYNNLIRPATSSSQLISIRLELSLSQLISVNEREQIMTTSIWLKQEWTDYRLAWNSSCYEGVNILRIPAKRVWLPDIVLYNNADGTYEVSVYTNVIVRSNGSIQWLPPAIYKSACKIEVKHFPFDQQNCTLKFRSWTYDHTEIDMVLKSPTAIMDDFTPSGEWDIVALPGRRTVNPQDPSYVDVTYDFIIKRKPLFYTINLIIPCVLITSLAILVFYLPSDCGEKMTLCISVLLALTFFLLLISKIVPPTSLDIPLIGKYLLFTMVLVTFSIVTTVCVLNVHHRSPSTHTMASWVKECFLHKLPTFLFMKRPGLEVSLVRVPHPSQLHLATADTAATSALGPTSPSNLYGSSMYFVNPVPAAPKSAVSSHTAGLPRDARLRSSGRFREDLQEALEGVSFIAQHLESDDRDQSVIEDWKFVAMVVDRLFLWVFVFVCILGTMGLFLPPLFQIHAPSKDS
T5 sequence (P09483 31-630): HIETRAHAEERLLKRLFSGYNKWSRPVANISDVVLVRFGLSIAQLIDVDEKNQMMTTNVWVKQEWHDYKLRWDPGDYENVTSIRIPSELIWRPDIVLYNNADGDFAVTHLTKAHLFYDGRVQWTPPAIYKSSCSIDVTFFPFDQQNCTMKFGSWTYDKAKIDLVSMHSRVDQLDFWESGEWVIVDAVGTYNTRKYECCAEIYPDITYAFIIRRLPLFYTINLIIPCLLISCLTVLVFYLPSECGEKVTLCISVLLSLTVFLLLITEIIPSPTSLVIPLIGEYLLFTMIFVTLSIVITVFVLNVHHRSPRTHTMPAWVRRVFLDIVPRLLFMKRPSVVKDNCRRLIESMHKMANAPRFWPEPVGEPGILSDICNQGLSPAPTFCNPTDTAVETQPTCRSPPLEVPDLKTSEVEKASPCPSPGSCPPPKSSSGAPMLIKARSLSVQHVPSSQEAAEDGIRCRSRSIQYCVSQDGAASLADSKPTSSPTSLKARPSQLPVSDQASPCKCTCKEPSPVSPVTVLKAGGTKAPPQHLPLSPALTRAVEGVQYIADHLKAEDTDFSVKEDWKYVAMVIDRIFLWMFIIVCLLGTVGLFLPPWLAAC
T1 sequence (P04757 26-499): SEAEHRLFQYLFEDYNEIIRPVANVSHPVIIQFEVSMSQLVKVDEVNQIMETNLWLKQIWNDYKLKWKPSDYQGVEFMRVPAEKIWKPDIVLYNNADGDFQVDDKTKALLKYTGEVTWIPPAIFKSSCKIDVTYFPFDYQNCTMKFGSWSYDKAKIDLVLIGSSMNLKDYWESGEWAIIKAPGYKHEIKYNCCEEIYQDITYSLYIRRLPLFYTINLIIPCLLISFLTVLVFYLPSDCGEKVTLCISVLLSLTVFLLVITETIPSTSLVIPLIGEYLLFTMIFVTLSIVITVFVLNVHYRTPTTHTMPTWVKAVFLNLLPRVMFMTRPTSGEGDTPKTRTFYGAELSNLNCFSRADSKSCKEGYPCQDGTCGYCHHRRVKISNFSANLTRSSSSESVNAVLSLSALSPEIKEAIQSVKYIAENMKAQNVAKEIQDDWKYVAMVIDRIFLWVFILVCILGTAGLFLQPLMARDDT
T1 sequence (P12392 21-495): as the sequence (P12392 21-495) above
T3 sequence (P12389 28-511): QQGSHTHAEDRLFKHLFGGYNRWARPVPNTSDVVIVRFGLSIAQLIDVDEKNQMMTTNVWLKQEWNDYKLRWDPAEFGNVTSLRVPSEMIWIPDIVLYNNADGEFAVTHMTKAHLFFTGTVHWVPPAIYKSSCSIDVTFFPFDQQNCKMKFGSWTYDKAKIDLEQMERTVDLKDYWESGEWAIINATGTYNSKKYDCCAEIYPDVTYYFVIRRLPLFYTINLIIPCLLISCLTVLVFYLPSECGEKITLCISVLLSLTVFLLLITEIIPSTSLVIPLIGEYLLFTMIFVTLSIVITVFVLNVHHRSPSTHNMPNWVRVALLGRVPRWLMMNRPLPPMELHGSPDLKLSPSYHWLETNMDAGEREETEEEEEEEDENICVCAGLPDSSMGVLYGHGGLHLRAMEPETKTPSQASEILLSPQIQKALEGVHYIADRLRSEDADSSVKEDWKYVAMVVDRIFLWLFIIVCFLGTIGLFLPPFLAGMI
T3 sequence (P12392 21-495): as the sequence (P12392 21-495) above
T2 sequence (P12390 25-500): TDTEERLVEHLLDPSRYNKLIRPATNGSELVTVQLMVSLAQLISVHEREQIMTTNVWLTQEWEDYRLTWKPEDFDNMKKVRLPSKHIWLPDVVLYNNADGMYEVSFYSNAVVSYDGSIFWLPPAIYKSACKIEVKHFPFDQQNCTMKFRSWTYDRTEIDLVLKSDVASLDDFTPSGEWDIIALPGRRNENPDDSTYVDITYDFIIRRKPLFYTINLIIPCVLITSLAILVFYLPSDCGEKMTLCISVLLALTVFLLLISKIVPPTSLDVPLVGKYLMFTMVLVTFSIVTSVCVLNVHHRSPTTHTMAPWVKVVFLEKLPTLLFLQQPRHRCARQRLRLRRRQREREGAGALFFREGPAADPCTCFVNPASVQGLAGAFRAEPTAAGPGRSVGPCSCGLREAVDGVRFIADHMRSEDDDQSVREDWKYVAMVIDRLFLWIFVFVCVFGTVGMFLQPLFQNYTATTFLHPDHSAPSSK
T2 sequence (P12389 28-511): as the sequence (P12389 28-511) above
T6 sequence (P12390 25-500): as the sequence (P12390 25-500) above
T6 sequence (P04757 26-499): as the sequence (P04757 26-499) above
T4 sequence (P12390 25-500): as the sequence (P12390 25-500) above
T4 sequence (P09483 31-630): as the sequence (P09483 31-630) above
T7 sequence (P09483 31-630): as above
T7 sequence (P12390 25-500): as the sequence (P12390 25-500) above

SMILES	Ki (α3β4 nAChR subtype) [nM]	Ki (α2β2 nAChR subtype) [nM]	Ki (α2β4 nAChR subtype) [nM]	Ki (α4β2 nAChR subtype) [nM]	Ki (α4β4 nAChR subtype) [nM]	Ki (α3β2 nAChR subtype) [nM]	Ki [1] [nM]	Ki (α3β4 nAChR subtype; [2]) [nM]	Ki (α2β2 nAChR subtype; [3]) [nM]	Ki (α2β4 nAChR subtype; [4]) [nM]	Ki (α4β2 nAChR subtype; [5]) [nM]	Ki (α4β4 nAChR subtype; [6]) [nM]	Ki (α3β2 nAChR subtype; [7]) [nM]	Ki [1, 8] [nM]	other results
O=c1cccc2n1C[C@H]1C[C@@H]2CN(CCCCl)C1 [ZW-16]	> 10000	1340	2630	571	732	> 1000	1500								
CN1CCC[C@H]1COc1cncc(C#CCNC(=O)OC(C)(C)C)c1 [Ligand 13]	59900	1.19	8240	2.07	8280	7.27	3.71								
FCCCCC#Cc1cncc(OC[C@@H]2CCCN2)c1 [Ligand 42, 5-(6-Fluoro-1-hexynyl)-3-(2(S)-pyrrolidinylmethoxy)pyridine]								7580	3.5	680	0.907	721	5.27	3.45	
OCCCCC#Cc1cncc(OC[C@@H]2CCCN2)c1 [Ligand 27, 5-(6-Hydroxy-1-hexynyl)-3-(2(S)-pyrrolidinylmethoxy)pyridine]								16100	1.51	835	0.665	778	2.69	1.15	
O=c1cccc2n1C[C@H]1C[C@@H]2CN(CCCN2C[C@@H]3C[C@H](C2)c2cccc(=O)n2C3)C1 [ZW-18]	> 10000	318	3480	468	746	> 1000	936								
C#Cc1cncc(OC[C@@H]2CCCN2C)c1 [Ligand 18]															Ki (α3β4 nAChR subtype; [9]): 3080 nM; Ki (α2β2 nAChR subtype; [10]): 0.75 nM; Ki (α2β4 nAChR subtype; [11]): 434 nM; Ki (α4β2 nAChR subtype; [12]): 1.02 nM; Ki (α4β4 nAChR subtype; [13]): 473 nM; Ki (α3β2 nAChR subtype; [14]): 10.7 nM; Ki [1, 15]: 3.65 nM
FCCCCC#Cc1cncc(OC[C@@H]2CCN2)c1 [Ligand 41, 5-(6-Fluoro-1-hexynyl)-3-(2(S)-azetidinylmethoxy)pyridine]								5490	0.796	197	0.201	118	0.635	0.362	
CN1CCC[C@H]1COc1cncc(C#CCCCCCCCCO)c1 [Ligand 17]															Ki (α3β4 nAChR subtype; [9]): 62700 nM; Ki (α2β2 nAChR subtype; [10]): 26.8 nM; Ki (α2β4 nAChR subtype; [11]): 7800 nM; Ki (α4β2 nAChR subtype; [12]): 6.5 nM; Ki (α4β4 nAChR subtype; [13]): 3560 nM; Ki (α3β2 nAChR subtype; [14]): 52.1 nM; Ki [1, 15]: 21.7 nM
CN1CCC[C@H]1COc1cncc(C#CCCCCO)c1 [Ligand 16]	40200	2.87	3230	0.81	1270	12.6	3.56								
OC1CC2NC1CC2c1ccc(Cl)nc1 (stereo not drawn) [Ligand 7, 2-exo-(2-Chloro-5-pyridyl)-5-endo-hydroxyl-7-azabicyclo[2.2.1]heptane]								916	93.7	238	70.9	247	285	134	
O=c1cccc2n1C[C@H]1C[C@@H]2CN(CCCCCN2C[C@@H]3C[C@H](C2)c2cccc(=O)n2C3)C1 [ZW-19]	> 10000	240	1430	383	468	> 1000	603								
OCCCCC#Cc1cncc(C2CC3CCC2N3)c1 (stereo not drawn) [Ligand 31, 2-exo-(5-(6-Hydroxy-1-hexynyl)-3-pyridyl)-7-azabicyclo[2.2.1]heptane]								266	0.352	45.1	0.166	15.4	0.146	0.215	
Clc1cc2c(cn1)C1(CC2)CC2CCC1N2 (stereo not shown) [Ligand 58a]								36700	12800	11600	28000	10200	16000	54400	Ki (α3β4 nAChR subtype; Table 3, mean ± SEM of 3 (nicotine, 1: 3 to 6) independent measurements, read-out: Ki α3β4): 14900 nM; Ki (α2β2 nAChR subtype; Table 3, mean ± SEM of 3 (nicotine, 1: 3 to 6) independent measurements, read-out: Ki α2β2): 12600 nM; Ki (α2β4 nAChR subtype; Table 3, mean ± SEM of 3 (nicotine, 1: 3 to 6) independent measurements, read-out: Ki α2β4): 10700 nM; Ki (α4β2 nAChR subtype; Table 3, mean ± SEM of 3 (nicotine, 1: 3 to 6) independent measurements, read-out: Ki α4β2): 29200 nM; Ki (α4β4 nAChR subtype; Table 3, mean ± SEM of 3 (nicotine, 1: 3 to 6) independent measurements, read-out: Ki α4β4): 10500 nM; Ki (α3β2 nAChR subtype; Table 3, mean ± SEM of 3 (nicotine, 1: 3 to 6) independent measurements, read-out: Ki α3β2): 19700 nM
